The values that follow come from US5486526A, “Histamine H3 -receptor antagonists and therapeutic uses thereof” (The University of Toledo, priority 1993, dated 1996).

One test concerns the target Bombesin. The conditions noted are these: reference compound; cited from earlier work.
The next test concerns the target T1, histamine H3 receptor (Rattus norvegicus, UniProt Q9QYN8).
T1 construct: from tissue
Description: Inhibition of [^3 H]-N-alpha-methylhistamine binding to rat brain membranes. To be noted: for binding to the histamine H3 -receptor (in words): discussion of Table I. As to the method:
A series of compounds were prepared and tested for their histamine H3 receptor antagonist activity. The antagonist activity of the compounds was detected by observing inhibition of (^3 H)-N-(alpha)methylhistamine activity on rat brain membranes.
The various compounds were tested for the ability to bind to the histamine H3 receptor. A binding assay in a rat brain membrane preparation, based on inhibition of binding of [^3 H]-N-alpha-methylhistamine using excess unlabeled alpha-methylhistamine to account for nonspecific binding, was developed.

Another test concerns the target NPY. To be noted: reference compound; cited from earlier work.
The next test addresses Angiotensin. To be noted: reference compound; cited from earlier work.
The next test has as its target Calcium. To be noted: reference compound; cited from earlier work.
A further test deals with Quisqualate. To be noted: reference compound; cited from earlier work.
For a further test, the target named is Substance K. To be noted: reference compound; cited from earlier work.
The next test concerns the target Dopamine 2. The conditions noted are these: reference compound; cited from earlier work.
Another test addresses MK-801. The conditions noted are these: reference compound; cited from earlier work.
In a further test the target is Adenosine. To be noted: reference compound; cited from earlier work.
For the next test, the target named is Potassium. The conditions noted are these: reference compound; cited from earlier work.
The target in a further test is Substance P. To be noted: reference compound; cited from earlier work.
The next test has as its target Neurotensin. The conditions noted are these: reference compound; cited from earlier work.
For a further test, the target named is Somatostatin. To be noted: reference compound; cited from earlier work.
For another test, the target named is Benzodiazephine. The conditions noted are these: reference compound; cited from earlier work.
The target in another test is PCP. To be noted: reference compound; cited from earlier work.
A further test addresses NGF. To be noted: reference compound; cited from earlier work.
In another test the target is Arg-Vasopressin V1. To be noted: reference compound; cited from earlier work.
The target in a further test is EGF. The conditions noted are these: reference compound; cited from earlier work.
The next test addresses NMDA. To be noted: reference compound; cited from earlier work.
For another test, the system named is Male albino CF-1 mice. Description: Behavioral effects in mice: sleep induced by (R)α-methylhistamine. The conditions noted are these: i.p. Type of test: in vivo, mouse. As to the method: The overall strategy to show central nervous system antagonist activity was to challenge effects of the agonist (R)α-methylhistamine. Therefore, the first objective was to establish a dose response curve for behavioral effects of (R)α-methylhistamine. Male albino CF-1 mice weighing 20-30 g were used. Saline or (R)α-methylhistamine in saline was injected i.p. in a volume ≤0.4 ml. […] Animals were scored for the presence (1) or absence (0) of the behavior and the results were reported as the accumulated score for a 30 minute period (maximum score=9).
To assess the effects of antagonists, they were administered with the (R)α-methylhistamine in saline.

Another test concerns the target VIP. To be noted: reference compound; cited from earlier work.
The target of test [1] is Adenylate Cyclase Forskolin. To be noted: reference compound; cited from earlier work.
A further test deals with ANF (rat). To be noted: reference compound; cited from earlier work.
A further test has as its target Serotonin 1. The conditions noted are these: reference compound; cited from earlier work.
Another test has as its target Serotonin 2. To be noted: reference compound; cited from earlier work.
Setting [2] is: ^3 HN^α -methylhistamine as radioligand, rat brain membranes, first part of Table I, read-out: IC50.
Where [3] appears, read: ^3 HN^α -methylhistamine as radioligand, rat brain membranes, second part of Table I, read-out: IC50.

Like-named read-outs stand apart in the source and are kept apart here. Ends that are not written are not given here.

T1 sequence (Q9QYN8 whole entry): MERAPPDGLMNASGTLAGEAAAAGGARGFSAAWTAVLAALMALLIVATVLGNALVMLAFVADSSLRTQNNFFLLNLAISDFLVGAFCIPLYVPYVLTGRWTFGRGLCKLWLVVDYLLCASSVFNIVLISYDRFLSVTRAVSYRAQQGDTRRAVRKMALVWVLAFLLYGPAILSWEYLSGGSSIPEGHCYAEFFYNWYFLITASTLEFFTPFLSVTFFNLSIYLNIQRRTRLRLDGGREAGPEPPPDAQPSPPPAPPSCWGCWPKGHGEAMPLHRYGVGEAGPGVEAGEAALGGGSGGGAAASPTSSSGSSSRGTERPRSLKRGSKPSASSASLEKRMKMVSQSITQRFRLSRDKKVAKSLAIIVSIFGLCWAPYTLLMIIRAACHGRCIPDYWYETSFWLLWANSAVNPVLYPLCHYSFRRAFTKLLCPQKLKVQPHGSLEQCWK

Regarding Tyr4-Bombesin, the inhibitory constant (Ki) on Bombesin was 0.55 nM.
Take `O=C(CC1CCCCC1)N1CCC(c2c[nH]cn2)CC1` [Compound 3]: the IC50 on histamine H3 receptor is 19 ± 12 nM.
`CNC(=S)NCCCCc1cnc[nH]1` [Burimamide, reference compound]: the IC50 on histamine H3 receptor (setting [2]) was determined as 156 ± 57 nM.
Same read-out and setting: with `O=C(CCC1CCCCC1)N1CCC(c2c[nH]cn2)CC1` [Compound 6] the figure was 34 ± 1.4 nM.
Turning to Neuropeptide Y: Reference Compound, the inhibition constant Ki on NPY was 0.5 nM.
In the case of Angiotensin II: Reference Compound, the Ki on Angiotensin is 0.2 nM.
On to `COC(=O)C1=C(C)NC(C)=C(C(=O)OC)C1c1ccccc1[N+](=O)[O-]` [Nifedipine], for which the Ki at Calcium was 1.6 nM.
Take `CC(C)(C)OC(=O)N1CCC(c2c[nH]cn2)CC1` [Compound 2]: at histamine H3 receptor, the 50% inhibitory concentration (IC50) stood at 243.5 ± 1.9 nM.
For `N[C@@H](Cn1oc(=O)[nH]c1=O)C(=O)O` [Quisqualic Acid], the inhibition constant Ki on Quisqualate was 11.8 nM.
In the case of `O=C(CCCc1ccccc1)N1CCC(c2c[nH]cn2)CC1` [Compound 5], the IC50 at histamine H3 receptor (setting [2]) turned out to be 262 ± 9 nM.
Consider Neurokinin A: Reference Compound, for which the inhibition constant (Ki) at Substance K is 2.75 nM.
On to `O=C(CC(c1ccccc1)c1ccccc1)N1CCC(c2c[nH]cn2)CC1` [Compound 52], for which the half-maximal inhibitory concentration (IC50) on histamine H3 receptor (setting [2]) came out at 93.1 nM.
Regarding `N#CN=C(Nc1ccc(-c2c[nH]cn2)cc1)NC1CCCCC1` [Compound 50], the “binding to the histamine H3 -receptor (in words)” value (shortened to “binding to the histamine H3”) at histamine H3 receptor was “ineffective at binding to the H3 -receptor”.
For `O=C(CCCN1CCC2(CC1)C(=O)NCN2c1ccccc1)c1ccc(F)cc1` [Spiperone], the Ki on Dopamine 2 was 0.08 nM.
As for `C[C@]12N[C@H](Cc3ccccc31)c1ccccc12` [MK801], at MK-801, the Ki was 4.3 nM.
With `CCNC(=O)[C@H]1O[C@@H](n2cnc3c(N)ncnc32)[C@H](O)[C@@H]1O` [NECA], on Adenosine, the inhibition constant (Ki) was 120 nM.
Take “Apamin: Reference Compound (CNCKAPETALCARRCQQH; ends and bridges not checked; cysteine pairing not given here; UniProt P01500 28-45, looked up)”: the Ki at Potassium is 0.05 nM.
With `O=C(c1ccccc1)N1CCC(c2c[nH]cn2)CC1` [Compound 13], the half-maximal inhibitory concentration (IC50) on histamine H3 receptor (setting [2]) was found to be 151 ± 44 nM.
In the case of Substance P: Reference Compound, the Ki at Substance P was 0.08 nM.
Turning to Neurotensin, the Ki at Neurotensin was 1.23 nM.
Turning to `O=C(CCCC1CCCCC1)N1CCC(c2c[nH]cn2)CC1` [Compound 12], the IC50 at histamine H3 receptor (setting [2]) turned out to be 41.4 ± 9 nM.
Still for that read-out and setting: with `O=C(CCc1ccccc1)N1CCC(c2c[nH]cn2)CC1` [Compound 7] the figure was 34.1 ± 3.6 nM.
With Somatostatin: Reference Compound, the Ki on Somatostatin is 0.03 nM.
As for `O=C1CN=C(c2ccccc2Cl)c2cc([N+](=O)[O-])ccc2N1` [Clonazepam], the Ki on Benzodiazephine is 3.4 nM.
On to `c1ccc(C2(N3CCCCC3)CCCCC2)cc1` [PCP], for which the Ki at PCP is 62.3 nM.
On to `O=C(C(c1ccccc1)C1CCCCC1)N1CCC(c2c[nH]cn2)CC1` (centres unmarked) [Compound 11], for which the half-inhibitory concentration (IC50) at histamine H3 receptor (setting [3]) is 260 ± 38 nM.
Consider `O=C(/C=C/c1ccccc1)N1CCC(c2c[nH]cn2)CC1` [Compound 10], for which the half-inhibitory concentration (IC50) at histamine H3 receptor (setting [3]) stood at 570 ± 172 nM.
As for `O=C(CCC(c1ccccc1)c1ccccc1)N1CCC(c2c[nH]cn2)CC1` [Compound 53], at histamine H3 receptor (setting [2]), the IC50 stood at 124 nM.
As to NGF: Reference Compound, on NGF, the inhibition constant Ki is 0.8 nM.
Take arg-Vasopressin: Reference Compound: on Arg-Vasopressin V1, the Ki was 4.9 nM.
For EGF: Reference Compound, on EGF, the inhibition constant (Ki) was 0.24 nM.
Take `CN[C@H](CC(=O)O)C(=O)O` [NMDA]: the Ki at NMDA was 359 nM.
Regarding `C[C@@H](N)Cc1c[nH]cn1` [(R)α-methylhistamine], the sleeping entry with Male albino CF-1 mice (15 to 35 mg/kg, one hour after injection) is on record as “dose-dependent (range of 15 to 35 mg/kg) increase in sleeping one hour after injection”; in the test with Male albino CF-1 mice (30 minutes after injection), “evident at 30 minutes after injection”.
As for VIP: Reference Compound, the Ki on VIP was 1.53 nM.
In the case of `C=C[C@@]1(C)CC(=O)[C@]2(O)[C@@]3(C)[C@@H](O)CCC(C)(C)[C@@H]3[C@H](O)[C@H](OC(C)=O)[C@@]2(C)O1` [Forskolin], the Ki in test [1] is 29.4 nM.
In the case of `N#CN=C(NC1CCCCC1)N1CCC(c2c[nH]cn2)CC1` [Compound 48], at histamine H3 receptor, the “binding to the histamine H3” value is “ineffective at binding to the H3 -receptor”.
In the case of `O=C(CC=C(c1ccccc1)c1ccccc1)N1CCC(c2c[nH]cn2)CC1` [Compound 54], the IC50 on histamine H3 receptor (setting [2]) is 1000 nM.
Consider ANP: Reference Compound, for which the Ki at ANF (rat) is 0.15 nM.
Turning to `NCCc1c[nH]c2ccc(O)cc12` [Serotonin], the Ki was 4.6 nM at Serotonin 1 and 531 nM on Serotonin 2.
In turn, `CNCCc1c[nH]cn1` [[^3 H]-N-alpha-methylhistamine, reference compound] gave a dissociation constant (Kd) on histamine H3 receptor of 0.19 nM.
Regarding `N#CN=C(Oc1ccccc1)N1CCC(c2c[nH]cn2)CC1` [Compound 47], the half-inhibitory concentration (IC50) on histamine H3 receptor (setting [2]) is 231 nM. In addition, the “binding to the histamine H3” value at histamine H3 receptor is on record as “ineffective at binding to the H3 -receptor”.

For orientation: Ki means a dissociation constant, usually derived from enzyme kinetics or from competition with a known ligand. One may read the IC50 as the concentration that inhibits the measured activity by half. By Kd is commonly meant the equilibrium constant for the complex coming apart. A higher Kd goes with lower affinity.
